These results are taken from US6034246A, “2-arylbenzazole compounds” (Cancer Research Campaign Technology Limited, priority 1995, dated 2000).

One series relates to Prostatic DU 145. Nature of the series: in vitro inhibitory activity against human prostatic cell line DU 145 (Table 3). In kind it is cell-based. From the text: (§1) Tables 1 to 4 at the end of the present description show in vitro test results obtained in various sets of experiments for the cytotoxic activity of several of the benzazole compounds concerned, including also for reference results for the compound CJM 126 and comparative results for compound DF129, when tested against a range of tumor cell lines which includes ovarian, lung and certain colon and renal cancer cells from the National Cancer Institute (USA) collection. As usual the results are expressed in terms of IS50 values (concentration or dosage required to reduce cell growth or proliferation by 50%) calculated from dose-effect curves plotted for cultures of the cells in question.
(§2) In carrying out the in vitro studies, the cytotoxicity assays may be carried out by a method corresponding substantially to the following example: […]
(§3) On day 7 the test was terminated by the addition of 100 μl saline containing 0.002% w/v propidium iodide (Sigma), 0.3% drawing ink (Staedtler "Marsmatic 745"--Trade Mark) and 0.5% Triton X-100. The plates were kept at 4° C. overnight before reading on an inverted microscope equipped with an automated scanning stage. Fluorescence intensity was measured in arbitrary units by a photomultiplier. […]

In a further series the test system is OVCAR-8. The experiment in a line: in vitro activity against human ovarian cell line OVCAR-8 (Table 2). In kind it is cell-based.
Description: as §1, §2, §3

A further series has as its system MCF-7wt. Nature of the series: in vitro inhibitory activity against human breast tumour cell line MCF-7wt (Table 4). Particulars: initial seeding density 2.5 × 10^2 cells/well. Format: cell-based.
Description: as §1
(§4) In carrying out the in vitro studies, the cytotoxicity assays may be carried out by a method corresponding substantially to the following example:
(§5) Cells were maintained in a continuous logarithmic culture in Dublecco's medium supplemented with 10% fetal calf serum and penicillin (100 IU/ml) and streptomycin ([…]). The cells were mildly trypsinized for passage and for use in assays. On day zero, 100 μl of trypsinized tumor cells (1×10^4 /ml) were plated in the wells of 96-well flat-bottom microtiter plates. The plates were incubated for 2 days at 37° C. and 5% CO2 in air to allow the cells to adhere and resume exponential growth prior to the addition of drugs.
(§6) On day two 50 μl of the highest drug concentration was added to the wells of column 12 and from there serially diluted 3-fold to column 1 by serial transfer of 50 μl using an 8-channel micropipette. The final volume of column 1 was adjusted to 100 μl. No additions were made to the wells of rows A and B, which served as controls. The plates were further incubated for 5 days at 37° C. and 5% CO2 in air. Each compound was tested in duplicate.
(§7) On day 7 the test was terminated by the addition of 100 μl saline containing 0.002% w/v propidium iodide (Sigma), 0.3% drawing ink (Staedtler "Marsmatic 745"--Trade Mark) and 0.5% Triton X-100. The plates were kept at 4° C. overnight before reading on an inverted microscope equipped with an automated scanning stage. Fluorescence intensity was measured in arbitrary units by a photomultiplier. An HP-87 computer controlled the movement of the stage and also collected and processed the data from the multiplier.
(§8) For each compound tested a dose-response curve was obtained and the IC50 value (the drug concentration at 50% inhibition of cell growth) was calculated.
*Initial seeding density 2.5 × 10^2 cells/well

The next series relates to CH1. Nature of the series: in vitro activity against human ovarian cell line CH1 (Table 2). In kind it is cell-based. The conditions noted are these: Homo sapiens.
Description: As usual the results are expressed in terms of IS50 values (concentration or dosage required to reduce cell growth or proliferation by 50%) calculated from dose-effect curves plotted for cultures of the cells in question.
as §4, §5, §6
The plates were kept at 4° C. overnight before reading on an inverted microscope equipped with an automated scanning stage. Fluorescence intensity was measured in arbitrary units by a photomultiplier. An HP-87 computer controlled the movement of the stage and also collected and processed the data from the multiplier.

The subject of the next series is NCI-H226. Nature of the series: in vitro inhibition of growth of human lung cancer cell line NCI-H226 (Table 1). Format: cell-based.
Description: as §1, §2, §3

The next series has as its system MOR/P. Nature of the series: in vitro inhibition of growth of human lung cancer cell line MOR/P (Table 1). Format: cell-based. The conditions noted are these: MOR/P (parental line).
Description: as §1, §4, §5, §6, §7, §8

Another series has as its system SK-OV-3. The experiment in a line: in vitro activity against human ovarian cell line SK-OV-3 (Table 2). Format: cell-based.
Description: as §1, §2, §3

The next series has as its system IGR-OV1. The experiment in a line: in vitro activity against human ovarian cell line IGR-OV1 (Table 2). Format: cell-based. Particulars: IGROV-1.
Description: as §1, §2, §3

Series [1] can be described thus: estimation of toxicity in tumor-bearing nude mice (body weight, blood cells, survival). Format: in vivo, mouse. The protocol: (§9) In one typical set of experiments, four human breast carcinomas xenotransplanted into female Ncr: nu/nu (Taconic, Germantown, U.S.A.) or male Bom: NMRI-nu/nu mice (Bomholtgaard, Ry, Denmark) were used for the evaluation of antitumor activity. Mice weighing 20-25 g at the start of experiments were held under sterile conditions at 24-26° C., 50% relative humidity and 12 hours light-dark rhythm in laminar flow shelves. The animals received autoclaved food and bedding; the drinking water was filtered and acidified (pH4.0).
(§10) The following breast carcinoma cell lines were used: BO; MCF-7 (NCI, U.S.A.); MT-1 and MT-3. The tumors BO and MCF-7 are ER^+ models: the carcinomas MT-1 and MT-3 are ER^- ones. Tumors were transplanted subcutaneously (s.c.) as pieces (2×2 mm) into the left flank of 5-8 nude mice/experimental group. Drug treatment was initiated when the tumors reached a diameter of 4-5 mm. Compounds were solubized with Tween 80 (maximum 10% of final volume) and suspended in saline. Suspensions were preparted freshly for each drug administration and injected in a volume of 0.2 mL/20 g body weight employing a once-weekly schedule (x3). Tumor size was measured twice weekly with a caliper. Median tumor volume/group was related to the first treatment day and expressed as Relative Tumor Volume (RTV). For the estimation of toxicity, body weight was determined twice weekly and the mean percentage body weight change (BCC) was calculated. In one experiment blood was obtained from the retroorbital venous plexus of mice and blood cells were determined with a Coulter counter (Model T41).

Series [2] relates to human breast cancer cell lines. Nature of the series: in vitro inhibition of human breast cancer cell lines. Format: cell-based. Particulars: words, Table 4.
Description: as §1, §4, §5, §6, §7, §8

Another series relates to LX4. The experiment in a line: in vitro inhibition of growth of human lung cancer cell line LX4 (Table 1). In kind it is cell-based.
Description: as §1, §4, §5, §6, §7, §8

The subject of another series is Prostatic PC3 MAZ. The experiment in a line: in vitro inhibitory activity against human prostatic cell line PC3 MAZ (Table 3). In kind it is cell-based.
Description: as §1, §2, §3

For series [3], the system named is xenotransplanted breast carcinomas. The experiment in a line: in vivo activity in panel of xenotransplanted breast carcinomas. On the set-up: species or system human (xenotransplanted in nude mice). Particulars: words; DF203 panel of four, DF129 two carcinomas. The protocol:
as §9
as §10, with “Compounds were solubized with Tween 80 (maximum 10% of final volume) and suspended in saline. Suspensions were preparted freshly for each drug administration and injected in a volume of 0.2 mL/20 g body weight employing a once-weekly schedule (x3).” left out

The mark [4] stands for this setting: MCF-7, optimum dose 200 mg/Kg/inj i.p., qd 12, 19, 26.
Where [5] appears, read: MCF-7, optimum dose 12.5 mg/Kg/inj i.p., qd 12, 19, 26.

Molecules are shown by their SMILES.

Usually IC50 stands for the concentration that gives 50% inhibition. For the molecule `Nc1ccc(-c2nc3ccccc3s2)cc1I` [DF129, 2-(4'-amino-3'-iodophenyl)benzothiazole], the IC50 was 52 µM in the series on Prostatic DU 145; more than 100 µM with OVCAR-8; less than 0.001 µM with MCF-7wt; 30 µM in the series on CH1; 0.3 µM in the series on NCI-H226; 0.3 µM in the series on MOR/P. Further, the IC50 is more than 100 µM with SK-OV-3, less than 0.1 µM in the series on IGR-OV1, more than 10 µM with LX4 and 54 µM in the series with Prostatic PC3 MAZ. Besides, the “BWC (body weight change)” value in [1] (BO, optimum dose 200 mg/Kg/inj i.p., qd 27, 34, 41 (Table 6)) is reported as -14%; in [1] (setting [4]) it was -14%. For the same molecule, the “Platelets (% of controls)” value in [1] (setting [4]) is 106 % of controls. Also, the “WBC, white blood cells (% of controls)” value in series [1] (setting [4]) is 112 % of controls. Moreover, in series [2], the “potency against breast cancer cells relative to CJM 126” value is “more potent than even the compound CJM 126”. For the same molecule, the “in vivo activity in xenotransplanted breast carcinomas” value in [3] is reported as “only borderline activity in one of the models”.
Take `Cc1cc(-c2nc3ccccc3s2)ccc1N` [DF203, 2-(4'-amino-3'-methylphenyl)benzothiazole]: the IC50 with Prostatic DU 145 was more than 100 µM; in the series on OVCAR-8 it was more than 100 µM; with MCF-7wt, less than 0.001 µM; in the series on CH1 it was 19 µM; in the series on NCI-H226, 0.3 µM; in the series on MOR/P it was 0.1 µM. In addition, the IC50 in the series with SK-OV-3 was more than 100 µM; in the series on IGR-OV1, less than 0.1 µM; with LX4, more than 10 µM; in the series with Prostatic PC3 MAZ, more than 100 µM. Moreover, the “BWC (body weight change)” value in series [1] (BO, optimum dose 25 mg/Kg/inj i.p., qd 27, 34, 41) is given as -9%; in [1] (setting [5]), -12%; in series [1] (MT-1, optimum dose 6.25 mg/Kg/inj i.p., qd 7, 14, 21), -3%; in [1] (MT-3, optimum dose 12.5 mg/Kg/inj i.p., qd 7, 14, 21), -3%. The “Platelets (% of controls)” value in [1] (setting [5]) is 108 % of controls. In addition, the “WBC, white blood cells (% of controls)” value in series [1] (setting [5]) is reported as 100 % of controls. In addition, in [1] (MCF-7 test, words), the “overall change in white blood cell or platelet counts” value is given as “no overall change”. For the same molecule, in [1] (mouse, in vivo), the bone marrow toxicity result is “not dose-limiting”. Moreover, the survivors result in series [1] (mouse, in vivo, 25 mg/kg) is “only one survivor”. The toxicity result in [1] (mouse, in vivo, 25 mg/kg) was “toxic”. Also, in series [2], the “potency against breast cancer cells relative to CJM 126” value is recorded as “more potent than even the compound CJM 126”. Besides, the “in vivo activity in xenotransplanted breast carcinomas” value in series [3] is listed as “consistent tumor growth inhibition in all four tumors”.
